{"source": "patent US20220240500A1", "about": "“Cryopreservation compositions and methods involving nanowarming” (REGENTS OF THE UNIVERSITY OF MINNESOTA, priority 2016, published 2022)", "origin": "cited, not measured here", "system": "zebrafish embryos", "conditions": "2.3 M injected; previous studies", "data": [{"smiles": "CC(O)CO", "note": "(stereo not shown) [Propylene Glycol]", "values": [{"measurement": "survival from injection into the zebrafish embryo", "result": "high survival"}]}]}
